# Source: PMC5717258, “Bioaccumulation of pharmaceuticals and personal care product chemicals in fish exposed to wastewater effluent in an urban wetland” (Scientific Reports, 2017)
# Where two headings read alike, the source gives them in different places.
# How the values were obtained:
# [1] = cited from earlier work
# [2] = Protocol: Plasma from 9 individual male fish (500 µL/individual) was pooled to yield 3 samples for PPCP analysis. […] Plasma from 6 individual carp (2.3–3.5 g) from each location was selected for PPCP analysis. […] Plasma samples were frozen (−80 °C) until analysis.
# (§1) A total of 20 fish plasma samples from the pooled caged fish (7) and the wild fish (13) along with 12 water samples were selected for analysis. […] A full list of analytes is provided in Supplementary Information. Mass labelled^13C-, or deuterated surrogate internal standards were used for quantification of all analytes via the isotope dilution/surrogate standard quantitation method. Prior to extraction and/or clean-up procedures, aqueous samples were adjusted to pH 2.0, spiked with extraction surrogate standards, then adjusted to pH 4 using tetrasodium ethylenediamine-tetraacetate dihydrate. Plasma samples (2.3–2.5 g) were spiked with extraction surrogate standards, sonicated with 20 mL acetonitrile, then diluted with ultra-pure water to 200 mL. The extracts were cleaned up by solid phase extraction using Oasis HLB cartridges (Waters Ltd. Mississauga ON), filtered, and analyzed by liquid chromatography-electrospray ionization-tandem mass spectrometry (LC/ESI-MS/MS) in positive or negative ionization mode. The analysis of the complete list of analytes (SI Table S1) required a total of five instrumental runs.
# (§2) Quality assurance steps included analysis of lab blanks for water and plasma along with matrix recovery spikes. […] Detection limits (DLs) were defined as lowest calibration level adjusted to the maximal sample size or 3 times the signal of the noise in the target channel converted to an equivalent sample, whichever was greater. […] Where analytes were detected in two or more samples of the same species or series of water samples, non-detect values were converted to ½ the DL value for reporting purposes.
# [3] = cited from earlier work; remark: listed apart in the source
# in vivo = conditions: for concentration at 21 days: goldfish (Carassius auratus)
# Excerpt: Cages were visited weekly, and fish (13/cage) were fed during the visits (20 g/cage). All animal experiments were in accordance with CCAC guidance and approved by the GLLFAS-WSTD Animal Care Committee (Government of Canada). Further details on the caging and preparation of the fish and animal care protocols are provided in Simmons et al.[32]. […] A fourth site, Jordan Harbour (JH), a widening of 20 Mile Creek adjacent to Lake Ontario near Jordan ON, served as a reference site. Mass and fork length were measured and recorded. Plasma collection and storage is described in the SI. Plasma of caged goldfish was divided for proteome, metabolome and PPCP analysis. Due to limited volumes, pooled samples of plasma from 25 individual fish (50 µL/individual) was pooled to yield one sample from at each location for PPCP analysis.
# as §1, §2
# [4] = design: method as in US EPA Chemistry Dashboard; conditions: ref US EPA Chemistry Dashboard; cited from earlier work
# [5] = human, ref Schulz et al.[56], cited from earlier work; for Therapeutic "normal" blood-plasma/serum concentration: converted from µg/mL
# [6] = Plasma bioaccumulation factor (BAFP), goldfish; assay type: in vivo, goldfish (Carassius auratus); conditions: for BAFP, CPM2 goldfish caged: water sample of August 2012; for BAFP at CPM3, wild goldfish, average: conc in fish plasma/conc in water; for BAFP at CPM3, wild goldfish, range: range based on range of plasma concentrations
# Protocol: Bioaccumulation factor (BAFP) was calculated as concentration in fish plasma (ng/g × 1000) divided by concentration in water (ng/L). Two widely used modeling approaches for predicting organic contaminant bioaccumulation were assessed: the BCF-BAF model for whole body BAFs[53] and the fish-plasma concentration calculation of Huggett et al.[35] modified by Berninger et al.[54]. The latter involves estimating an octanol-water partition coefficient (Kow) adjusted for fraction ionized (log D), using the pKa value to adjust log Kow[54] taking into account the pH of CPM waters. Further information on the calculation of log D, blood-water partitioning (PBW), and plasma concentrations (FPC) is given in the SI.
# [7] = wild goldfish sample 01, 2012, wet weight
# [8] = wild goldfish sample 02, 2012, wet weight
# [9] = wild goldfish sample 03, 2012, wet weight
# [10] = CPM1, 07-2014, pooled plasma, wet weight
# [11] = CPM2, 07-2014, pooled plasma, wet weight
# [12] = CPM3, 07-2014, pooled plasma, wet weight
# [13] = Jordan Harbour reference site, 07-2014, pooled plasma, wet weight
# [14] = Table S7, ref Meador et al. (2016)
# [15] = male, goldfish (Carassius auratus), in vivo
# [16] = in vivo, caged goldfish plasma, range of concentrations
# [17] = in vivo, plasma concentration, CPM1 caged
# [18] = in vivo, plasma concentration, CPM2 caged
# [19] = in vivo, plasma concentration, CPM3 caged
# [20] = in vivo, plasma concentration, JH caged
molecule,measurement,setting,value
CN(C)CCC=C1c2ccccc2CC(O)c2ccccc21 (stereo not shown) [10-hydroxy-amitriptyline],Salmon (whole body) concentration,[1]; in vivo,0.09 ng/g
same,"plasma concentration, CPM-C 01","[2]; Cootes carp 01, 2011, male, wet weight",0.032 ng/g
same,"plasma concentration, CPM-C 2","[2]; Cootes carp 2, Sep 27, 2011, male, wet weight",0.053 ng/g
same,"plasma concentration, CPM-C 10","[2]; Cootes carp 10, Sep 28, 2011, female, wet weight",0.024 ng/g
same,"plasma concentration, CPM-C 13","[2]; Cootes carp 13, Sep 28, 2011, female, wet weight",0.047 ng/g
same,"plasma concentration, CPM-C 20","[2]; Cootes carp 20, 2011, male, wet weight",0.016 ng/g
same,"plasma concentration, CPM-C 36","[2]; Cootes carp 36, Oct 3, 2011, female, wet weight",0.025 ng/g
same,"Carp plasma concentration, this study (range)",[2]; Table S7,0.02 to 0.05 ng/g
same,"Goldfish plasma concentration, this study (range)",[2]; Table S7,0.01 to 0.06 ng/g
same,"plasma concentration, CPM wild-01",[2]; [7],0.015 ng/g
same,"plasma concentration, CPM wild-02",[2]; [8],0.036 ng/g
same,"plasma concentration, CPM wild-03",[2]; [9],0.058 ng/g
same,Sculpin (whole body) concentration,[3]; in vivo,0.13 ng/g
same,"plasma concentration, CPM1 caged",in vivo; [10],0.033 ng/g
same,"plasma concentration, CPM2 caged",in vivo; [11],0.039 ng/g
same,"plasma concentration, CPM3 caged",in vivo; [12],0.015 ng/g
same,"plasma concentration, JH caged",in vivo; [13],< 0.03 ng/g
"Cc1nnc2n1-c1ccc(Cl)cc1C(c1ccccc1)=NC2 [Alpr azolam, Alprazolam]",Sculpin (whole body) concentration,[3]; [14],0.38 ng/g
CN(C)CCC=C1c2ccccc2CCc2ccccc21 [Amitriptyline],Salmon (whole body) concentration,[1]; [14],0.58 to 0.68 ng/g
same,"Goldfish plasma concentration, this study (range)",[2]; Table S7,0.03 to 0.09 ng/g
same,"plasma concentration, CPM wild-01",[2]; [7],0.029 ng/g
same,"plasma concentration, CPM wild-02",[2]; [8],0.082 ng/g
same,"plasma concentration, CPM wild-03",[2]; [9],0.091 ng/g
same,concentration at 21 days,"in vivo; in vivo, plasma concentration, CPM1 caged, CPM1, 07-2014, pooled plasma, wet weight",0.029 ng/g
same,concentration at 21 days,"in vivo; in vivo, plasma concentration, CPM2 caged, CPM2, 07-2014, pooled plasma, wet weight",0.029 ng/g
same,concentration at 21 days,"in vivo; in vivo, plasma concentration, CPM3 caged, CPM3, 07-2014, pooled plasma, wet weight",0.031 ng/g
same,concentration at 21 days,"in vivo; in vivo, plasma concentration, JH caged, Jordan Harbour reference site, 07-2014, pooled plasma, wet weight",< 0.06 ng/g
"CC[C@H]1OC(=O)[C@H](C)[C@@H](O[C@H]2C[C@@](C)(OC)[C@@H](O)[C@H](C)O2)[C@H](C)[C@@H](O[C@@H]2O[C@H](C)C[C@H](N(C)C)[C@H]2O)[C@](C)(O)C[C@@H](C)CN(C)[C@H](C)[C@@H](O)[C@]1(C)O [Azithrom yc in, Azithromycin]",Salmon (whole body) concentration,[1]; [14],1.7 ng/g
CN1[C@@H]2CC[C@H]1C[C@@H](OC(c1ccccc1)c1ccccc1)C2 [Benztropine],log Kow,[4],3.85
same,"Therapeutic ""normal"" blood-plasma/serum concentration",[5],10 to 180 ng/mL
same,toxic dose (toxic blood-plasma/serum concentration),[5],50 ng/mL
same,Salmon (whole body) concentration,[1]; [14],0.2 ng/g
same,"whole fish concentration, salmon",[1]; ref Meador et al. 18,0.2 ng/g wet weight or ng/mL for plasma
same,"whole fish concentration, sculpin",[3]; ref Meador et al. 18,< mdl
CC(C)(c1ccc(O)cc1)c1ccc(O)cc1 [Bisphenol A],Salmon (whole body) concentration,[1]; [14],3.3 to 41 ng/g
same,Sculpin (whole body) concentration,[3]; [14],3.6 to 4.5 ng/g
"O=C(O)c1cn(C2CC2)c2cc(N3CCNCC3)c(F)cc2c1=O [Ciproﬂoxacin, Ciprofloxacin]",Sculpin (whole body) concentration,[3]; [14],17 ng/g
CN(C)CCCC1(c2ccc(F)cc2)OCc2cc(C#N)ccc21 (stereo not shown) [Citalopram],log Kow,[4],3.74
same,"Therapeutic ""normal"" blood-plasma/serum concentration",[5],50 to 110 ng/mL
same,"plasma concentration, carp, this study (mean)",[2]; in vivo,< mdl
same,"plasma concentration, CPM wild-01",[2]; [15],0.0392 ng/g
same,"plasma concentration, CPM wild-02",[2]; [15],0.127 ng/g
same,"plasma concentration, CPM wild-03",[2]; [15],0.13 ng/g
same,"plasma concentration, goldfish, this study (mean)",[2]; [15],0.10 ng/g wet weight or ng/mL for plasma
same,"wild goldfish plasma, range of concentrations",[2]; [15],0.04 to 0.16 ng/g
same,"BAFP, CPM1 goldfish caged",[6],4 L/kg
same,"BAFP, CPM2 goldfish caged",[6],6 L/kg
same,"BAFP, CPM3 goldfish caged",[6],52 L/kg
same,"BAFP at CPM3, wild goldfish, average",[6],44 L/kg
same,"BAFP at CPM3, wild goldfish, range",[6],18 to 58 L/kg
same,concentration at 21 days,in vivo; [16],0.04 to 0.13 ng/g
same,concentration at 21 days,in vivo; [17],0.145 ng/g
same,concentration at 21 days,in vivo; [18],0.163 ng/g
same,concentration at 21 days,in vivo; [19],0.041 ng/g
same,concentration at 21 days,in vivo; [20],< 0.08 ng/g
"CNCCN1C(=O)[C@H](OC(C)=O)[C@H](c2ccc(OC)cc2)Sc2ccccc21 [Desm eth yld ilt ia zem, Desmethyldiltiazem]",Salmon (whole body) concentration,[1]; [14],0.06 to 1.5 ng/g
same,Sculpin (whole body) concentration,[3]; [14],0.07 to 0.08 ng/g
CN1C(=O)CN=C(c2ccccc2)c2cc(Cl)ccc21 [Diazepam],Salmon (whole body) concentration,[1]; [14],0.39 ng/g
same,Sculpin (whole body) concentration,[3]; [14],0.25 ng/g
CN(C)CCOC(c1ccccc1)c1ccccc1 [Diphenhydramine],"BAFP, CPM1 goldfish caged",[6],7 L/kg
same,"BAFP, CPM2 goldfish caged",[6],5 L/kg
CNCCC(Oc1ccc(C(F)(F)F)cc1)c1ccccc1 (stereo not shown) [Fluoxetine],Salmon (whole body) concentration,[1]; [14],4.9 ng/g
C[C@H](O)C(=O)Nc1c(I)c(C(=O)NC(CO)CO)c(I)c(C(=O)NC(CO)CO)c1I [Iopamidol],log Kow,[4],-2.21
same,"plasma concentration, carp, this study (mean)",[2]; in vivo,< mdl
same,"plasma concentration, CPM wild-01",[2]; [15],7.85 ng/g
same,"plasma concentration, CPM wild-02",[2]; [15],8.15 ng/g
same,"plasma concentration, CPM wild-03",[2]; [15],8.35 ng/g
same,"plasma concentration, goldfish, this study (mean)",[2]; [15],8.12 ng/g wet weight or ng/mL for plasma
same,"wild goldfish plasma, range of concentrations",[2]; [15],8.2 to 20.9 ng/g
same,"BAFP, CPM1 goldfish caged",[6],75 L/kg
same,"BAFP, CPM2 goldfish caged",[6],50 L/kg
same,"BAFP, CPM3 goldfish caged",[6],13 L/kg
same,"BAFP at CPM3, wild goldfish, average",[6],38 L/kg
same,"BAFP at CPM3, wild goldfish, range",[6],37 to 40 L/kg
same,concentration at 21 days,in vivo; [16],7.85 to 8.35 ng/g
same,concentration at 21 days,in vivo; [17],20.9 ng/g
same,concentration at 21 days,in vivo; [18],17.6 ng/g
same,concentration at 21 days,in vivo; [19],8.2 ng/g
same,concentration at 21 days,in vivo; [20],< 16 ng/g
Clc1ccc(COC(Cn2ccnc2)c2ccc(Cl)cc2Cl)c(Cl)c1 (stereo not shown) [Miconazole],Salmon (whole body) concentration,[1]; [14],1.8 ng/g
"COc1ccc(CCNCCCC(C#N)(c2ccc(OC)c(OC)c2)C(C)C)cc1OC (stereo not shown) [Norverapam il, Norverapamil]",Salmon (whole body) concentration,[1]; [14],0.12 to 0.47 ng/g
same,Sculpin (whole body) concentration,[3]; [14],0.20 to 0.30 ng/g
"COc1cc(C)c(Cc2cnc(N)nc2N)cc1OC [Orm etoprim, Ormetoprim]",Salmon (whole body) concentration,[1]; [14],44 to 1600 ng/g
Nc1ccc(S(=O)(=O)Nc2ncccn2)cc1 [Sulfadiazine],Salmon (whole body) concentration,[1]; [14],0.88 ng/g
"COc1cc(NS(=O)(=O)c2ccc(N)cc2)nc(OC)n1 [Sulfadim ethoxine, Sulfadimethoxine]",Salmon (whole body) concentration,[1]; [14],0.34 to 17 ng/g
"Cc1ccnc(NS(=O)(=O)c2ccc(N)cc2)n1 [Sulfam erazine, Sulfamerazine]",Salmon (whole body) concentration,[1]; [14],0.51 ng/g
"Oc1cc(Cl)ccc1Oc1ccc(Cl)cc1Cl [T riclosan, Triclosan]",Salmon (whole body) concentration,[1]; [14],26 ng/g
"CC1=C\[C@@H](O)CC(=O)Cc2nc(co2)C(=O)N2CCC=C2C(=O)O[C@H](C(C)C)[C@H](C)/C=C/C(=O)NC\C=C\1 [Virg in iam ycin M1, Virginiamycin M1]",Salmon (whole body) concentration,[1]; [14],10 ng/g
same,Sculpin (whole body) concentration,[3]; [14],8 to 34 ng/g
NC(=O)N1c2ccccc2C=Cc2ccccc21 [carbamazepine],detection in fish plasma,in vivo; in vivo,not detected
Anhydrochlortetracycline,"plasma concentration, CPM wild-01",[2]; [7],< 2.94 ng/g
same,"plasma concentration, CPM wild-02",[2]; [8],< 3.18 ng/g
same,"plasma concentration, CPM wild-03",[2]; [9],< 3.13 ng/g
same,"plasma concentration, CPM1 caged",in vivo; [10],2.97 ng/g
same,"plasma concentration, CPM2 caged",in vivo; [11],< 2.92 ng/g
same,"plasma concentration, CPM3 caged",in vivo; [12],< 3.07 ng/g
same,"plasma concentration, JH caged",in vivo; [13],< 3.0 ng/g
